Experimental data as given in ChEMBL document CHEMBL3046028, “3D-QSAR study of tyrosine and propanoic acid derivatives as PPAR/ dual agonists using CoMSIA” (Med Chem Res, 2013).

Columns and labels:
[1] = biological target: T1, Peroxisome proliferator-activated receptor gamma (Homo sapiens, UniProt P37231); type: cell-based, CV-1
T1 sequence (P37231 whole entry): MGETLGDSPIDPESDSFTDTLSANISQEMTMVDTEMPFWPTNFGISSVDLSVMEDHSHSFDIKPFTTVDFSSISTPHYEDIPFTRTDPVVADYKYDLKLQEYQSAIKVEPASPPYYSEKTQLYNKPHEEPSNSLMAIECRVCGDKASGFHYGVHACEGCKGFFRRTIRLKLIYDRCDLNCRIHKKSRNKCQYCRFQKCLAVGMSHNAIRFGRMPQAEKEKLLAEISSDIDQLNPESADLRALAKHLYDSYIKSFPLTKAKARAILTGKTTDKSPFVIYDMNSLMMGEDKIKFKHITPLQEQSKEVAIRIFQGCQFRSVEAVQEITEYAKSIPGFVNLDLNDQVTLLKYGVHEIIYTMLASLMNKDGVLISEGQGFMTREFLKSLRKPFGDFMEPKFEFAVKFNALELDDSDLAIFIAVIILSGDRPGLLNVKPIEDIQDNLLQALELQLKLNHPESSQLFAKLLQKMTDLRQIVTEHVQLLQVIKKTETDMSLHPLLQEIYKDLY
Description: Transactivation of GAL4-fused Homo sapiens (human) PPARgamma DNA binding domain expressed in African green monkey CV1 cells by luciferase reporter gene assay

[2] = biological target: T2, Peroxisome proliferator-activated receptor alpha (Homo sapiens, UniProt Q07869); assay: Transactivation of GAL4-fused Homo sapiens (human) PPARalpha […] expressed in African green monkey CV1 cells by luciferase reporter gene assay; type: cell-based, CV-1
T2 sequence (Q07869 whole entry): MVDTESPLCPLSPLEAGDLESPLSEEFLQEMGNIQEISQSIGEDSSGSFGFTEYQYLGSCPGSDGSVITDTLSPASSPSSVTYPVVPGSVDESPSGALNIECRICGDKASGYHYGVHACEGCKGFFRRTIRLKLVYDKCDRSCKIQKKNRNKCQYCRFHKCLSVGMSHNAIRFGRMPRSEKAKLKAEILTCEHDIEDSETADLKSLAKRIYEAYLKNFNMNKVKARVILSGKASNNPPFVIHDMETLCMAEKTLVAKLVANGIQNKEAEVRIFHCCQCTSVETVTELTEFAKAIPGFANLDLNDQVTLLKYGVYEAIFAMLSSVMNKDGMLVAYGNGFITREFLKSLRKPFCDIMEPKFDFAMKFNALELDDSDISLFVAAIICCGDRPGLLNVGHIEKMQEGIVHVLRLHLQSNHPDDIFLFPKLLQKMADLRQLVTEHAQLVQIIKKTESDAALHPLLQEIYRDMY

EC50 [1] [nM] | EC50 ([2]; read-out: EC50) [nM] | Compound | EC50 ([2]; read-out: pEC50 (converted)) [nM]
0.1 | 1050 | Cc1sc(-c2ccccc2)nc1CCOc1ccc(C[C@@](O)(C(=O)O)c2ccccc2C(=O)c2ccccc2)cc1 | –
1.29 | 6460 | Cc1sc(N2CCN(C)CC2)nc1CCOc1ccc(C[C@@](O)(C(=O)O)c2ccccc2C(=O)c2ccccc2)cc1 | –
20 | – | Cc1oc(-c2ccccc2)nc1CCOc1ccc(C[C@]2(C(=O)O)C=CC=CO2)cc1 | –
0.71 | 3500 | COC(=O)c1ccccc1[C@@](O)(Cc1ccc(OCCc2nc(-c3ccccc3)oc2C)cc1)C(=O)O | –
24 | 6900 | Cc1oc(-c2ccccc2)nc1CCOc1ccc(C[C@@]2(C(=O)O)CCOCCO2)cc1 | –
0.34 | 457 | Cc1oc(-c2ccccc2)nc1CCOc1ccc(C[C@@](O)(C(=O)O)c2ccccc2C(=O)c2ccccc2)cc1 | –
– | – | CCO[C@@H](Cc1ccc(OC/C=C(/c2ccccc2)c2ccc(F)cc2)cc1)C(=O)O | 3160
– | – | CCO[C@@H](Cc1ccc(OC/C=C(/c2ccccc2)c2ccc(-c3ccccc3)cc2)cc1)C(=O)O | 692
